Source: US11091428B2 (HAPLOGEN GMBH, priority 2016, dated 2021)

Assays:
PLA2G16 = target: T1, PLA2G16 (Homo sapiens, UniProt P53816); assay: Enzyme activity assay for PLA2G16 (Red/Green BODIPY PC-A2 fluorescence); format: biochemical; conditions: His-tagged PLA2G16, 4 min pre-incubation, 2 nM to 50 μM; read-out: IC50 values of the compounds determined in the enzyme activity assay for PLA2G16
T1 construct: Hexa-His (N); made in house; host or cells: E. coli BL21(DE3)
T1 sequence (P53816 1-162): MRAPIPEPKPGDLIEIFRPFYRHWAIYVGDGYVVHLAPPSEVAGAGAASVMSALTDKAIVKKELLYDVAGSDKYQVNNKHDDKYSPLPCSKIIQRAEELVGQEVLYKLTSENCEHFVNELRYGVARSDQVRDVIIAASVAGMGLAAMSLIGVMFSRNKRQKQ
How it was run: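 N-His-tagged human PLA2G16 from E. coli, Ni-NTA purified. Pre-incubated 4 min with compound (2 nM–50 μM final) in pH 8.5 Tris/NaCl buffer with 5 mM glutathione, then BODIPY PC-A2 in DOPC/DOPG/cholesterol vesicles added. Fluorescence (ex 480/em 530 nm) increase over 10 min taken as activity; IC50 by non-linear regression.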

[1] = system: picornaviruses (CVB1, HRV-A2, HRV-A23, EV-68); assay: Anti-picornavirus cytopathic effect (CPE) reduction assay on HeLa H1 cells; format: cell-based; conditions: Enterovirus B, HeLa H1, 48 h, HeLa H1 cells, 48 h, category from averaging the EC50 values from four picornaviruses (CVB1, HRV-A2, HRV-A23, EV68); read-out: EC50 values of the compounds determined in the anti-picornavirus assay
How it was run: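 HeLa H1 cells pre-treated 2 h with serially diluted compound in DMEM/2% FBS, then infected at an MOI giving full CPE in 2 days. After 48 h at 37° C, viability read by CellTiterBlue fluorescence (ex 560/em 590 nm), normalised to infected and uninfected vehicle controls; EC50 by non-linear regression, category from mean of four viruses.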

| SMILES | IC50 (PLA2G16) | EC50 [1] |
| --- | --- | --- |
| O=C(NC1CCN(S(=O)(=O)C2CCCC2)CC1)C(=O)[C@H]1CCC(=O)N1Cc1ccccc1 [FP 321, 2-[(2R)-1-Benzyl-5-oxopyrrolidin-2-yl]-N-[1-(cyclopentanesulfonyl)piperidin-4-yl]-2-oxoacetamide] | < 1 µM | < 1 µM |
| CCC(C(=O)C(=O)NCC1CCCCC1)N(C=O)C1CCCCC1 (stereo not drawn) [FP 60, 3-(N-Cyclohexylformamido)-N-(cyclohexylmethyl)-2-oxopentanamide] | < 1 µM | 1 to 10 µM |
| O=C(COCc1ccccc1)C(=O)NCC1CC1 [FP 128, 3-(Benzyloxy)-N-(cyclopropylmethyl)-2-oxopropanamide] | < 1 µM | < 1 µM |
| CC(C)NC(=O)[C@H]1C[C@@H](NC(=O)C(=O)[C@H]2CCC(=O)N2Cc2ccccc2)C1 [FP 305, (1 s,3s)-3-{2-[(2R)-1-Benzyl-5-oxopyrrolidin-2-yl]-2-oxoacetamido}-N-(propan-2-yl)cyclobutane-1-carboxamide] | < 1 µM | 1 to 10 µM |
| O=C(COCC1CCCCC1)C(=O)NCC1CC1 [FP 129, 3-(Cyclohexylmethoxy)-N-(cyclopropylmethyl)-2-oxopropanamide] | < 1 µM | > 10 µM |
| CC(NC(=O)C1CCC(F)(F)CC1)C(=O)C(=O)NCC1CC1 (stereo not drawn) [FP 173, N-(Cyclopropylmethyl)-3-[(4,4-difluorocyclohexyl)formamido]-2-oxobutanamide] | 1 to 10 µM | > 10 µM |
| CC(C(=O)C(=O)NCC1CCCCC1)N(C)C(=O)c1ccccc1 (stereo not drawn) [FP 176, N-(Cyclohexylmethyl)-3-(N-methyl-1-phenylformamido)-2-oxobutanamide] | < 1 µM | < 1 µM |
| CC(C(=O)C(=O)NCC1CC1)N(C)S(=O)(=O)c1ccccc1 (stereo not drawn) [FP 221, N-(Cyclopropylmethyl)-3-(N-methylbenzenesulfonamido)-2-oxobutanamide] | < 1 µM | > 10 µM |
| CCCC(NS(=O)(=O)c1ccccc1)C(=O)C(=O)NCC1CC1 (stereo not drawn) [FP 217, 3-Benzenesulfonamido-N-(cyclopropylmethyl)-2-oxohexanamide] | < 1 µM | 1 to 10 µM |
| CC(=O)NCCOCCOCCNC(=O)C(=O)C1CCC(=O)N1Cc1ccc(Cl)cc1 (stereo not drawn) [FP 327, 2-{1-[(4-Chlorophenyl)methyl]-5-oxopyrrolidin-2-yl}-N-{2-[2-(2-acetamidoethoxy)-ethoxy]ethyl}-2-oxoacetamide] | 1 to 10 µM | > 10 µM |
| CC(C)C(=O)NCCNC(=O)C(=O)[C@H]1CCC(=O)N1Cc1ccccc1 [FP 331, N-(2-{2-[(2R)-1-Benzyl-5-oxopyrrolidin-2-yl]-2-oxoacetamido}ethyl)-2-methyl-propanamide] | < 1 µM | 1 to 10 µM |
| CC(OCC1CC1)C(=O)C(=O)NCC1CC1 (stereo not drawn) [FP 134, 3-(Cyclopropylmethoxy)-N-(cyclopropylmethyl)-2-oxobutanamide] | < 1 µM | 1 to 10 µM |
| CC(C)NC(=O)C(=O)C(C)N(C=O)CC(C)(C)C (stereo not drawn) [FP 29, 3-[N-(2,2-Dimethylpropyl)formamido]-2-oxo-N-(propan-2-yl)butanamide] | < 1 µM | 1 to 10 µM |
| CC(C(=O)C(=O)NCCOc1ccc(C(N)=O)cc1)N(C=O)C1CCCCC1 (stereo not drawn) [FP 114, 4-{2-[3-(N-Cyclohexylformamido)-2-oxobutanamido]ethoxy}benzamide] | < 1 µM | > 10 µM |
| CNC(=O)C(=O)[C@H]1CCC(=O)N1Cc1ccccc1 [FP 281, 2-[(2R)-1-Benzyl-5-oxopyrrolidin-2-yl]-N-methyl-2-oxoacetamide] | < 1 µM | 1 to 10 µM |
| CC(C(=O)C(=O)NCc1cccc(Cl)c1)N(C=O)C1CCOCC1 (stereo not drawn) [FP 22, N-[(3-Chlorophenyl)methyl]-3-[N-(oxan-4-yl)formamido]-2-oxobutanamide] | < 1 µM | 1 to 10 µM |
| C[C@H]1CC(=O)N(Cc2ccccc2)[C@H]1C(=O)C(=O)NC1CC1 (single isomer, unassigned) [FP 341] | < 1 µM | 1 to 10 µM |
| O=C(NC1CC(F)C1)C(=O)[C@H]1CCC(=O)N1Cc1ccccc1 (stereo partly drawn) [FP 294, 2-[(2R)-1-Benzyl-5-oxopyrrolidin-2-yl]-N-(3-fluorocyclobutyl)-2-oxoacetamide] | < 1 µM | < 1 µM |
| CC(NS(=O)(=O)c1ccc(F)cc1)C(=O)C(=O)NCC1CC1 (stereo not drawn) [FP 219, N-(Cyclopropylmethyl)-3-(4-fluorobenzenesulfonamido)-2-oxobutanamide] | < 1 µM | 1 to 10 µM |
| CC(OCC(C)(C)C)C(=O)C(=O)NCC1CC1 (stereo not drawn) [FP 122, N-(Cyclopropylmethyl)-3-(2,2-dimethylpropoxy)-2-oxobutanamide] | 1 to 10 µM | 1 to 10 µM |

| SMILES | IC50 (PLA2G16) | EC50 [1] |
| --- | --- | --- |
| CCCC(NC(=O)CN(C)C)C(=O)C(=O)NCC1CCCCC1 (stereo not drawn) [FP 207, N-(Cyclohexylmethyl)-3-[2-(dimethylamino)acetamido]-2-oxohexanamide] | < 1 µM | 1 to 10 µM |
| CC(NC(=O)c1c(Cl)cccc1Cl)C(=O)C(=O)NCC1CC1 (stereo not drawn) [FP 163, N-(Cyclopropylmethyl)-3-[(2,6-dichlorophenyl)formamido]-2-oxobutanamide] | < 1 µM | < 1 µM |
| CCNC(=O)C(=O)C1CCC(=O)N1Cc1ccc(C)s1 (stereo not drawn) [FP 278, N-Ethyl-2-{1-[(5-methylthiophen-2-yl)methyl]-5-oxopyrrolidin-2-yl}-2-oxoacetamide] | < 1 µM | 1 to 10 µM |
| CCCC(NC(=O)CN1CCN(C)CC1)C(=O)C(=O)NCC1CCCCC1 (stereo not drawn) [FP 214, N-(Cyclohexylmethyl)-3-[2-(4-methylpiperazin-1-yl)acetamido]-2-oxohexanamide] | 1 to 10 µM | > 10 µM |
| CC(C)CC(C(=O)C(=O)NCC1CC1)N(C=O)C[C@@H]1CCOC1 (stereo partly drawn) [FP 64, N-(Cyclopropylmethyl)-5-methyl-2-oxo-3-(N{[(3S)-oxolan-3-yl]methyl}formamido) hexanamide] | < 1 µM | 1 to 10 µM |
| CCC(C(=O)C(=O)NCC1CCCCC1)N(C=O)CC1CN(C(=O)OC(C)(C)C)C1 (stereo not drawn) [FP 61, tert-Butyl 3-[(NM{1-[(cyclohexylmethyl)carbamoyl]-1-oxobutan-2-yl}formamido)methyl]-azetidine-1-carboxylate] | < 1 µM | 1 to 10 µM |
| CC(C)C(=O)NCCCCNC(=O)C(=O)[C@H]1CCC(=O)N1Cc1ccccc1 [FP 304, N-(4-{2-[(2R)-1-Benzyl-5-oxopyrrolidin-2-yl]-2-oxoacetamido}butyl)-2-methylpropan-amide] | < 1 µM | 1 to 10 µM |
| CC(C(=O)C(=O)NCC1CC1)N(C=O)CC(C)(C)C (stereo not drawn) [FP 41, N-(Cyclopropylmethyl)-3-[N-(2,2-dimethylpropyl)formamido]-2-oxobutanamide] | < 1 µM | 1 to 10 µM |
| NC(=O)c1ccc(CN2C(=O)CCC2C(=O)C(=O)NCC2CCCCC2)cc1 (stereo not drawn) [FP 252, 4-[(2-{[(Cyclohexylmethyl)carbamoyl]carbonyl}-5-oxopyrrolidin-1-yl)methyl]benzamide] | < 1 µM | 1 to 10 µM |
| CCCC(NC(=O)c1ccccc1)C(=O)C(=O)NCC1CC1 (stereo not drawn) [FP 154, N-(Cyclopropylmethyl)-2-oxo-3-(phenylformamido)hexanamide] | < 1 µM | 1 to 10 µM |
| CC(C)C(C(=O)C(N)=O)N(C=O)Cc1ccccc1 (stereo not drawn) [FP 198, 3-(N-Benzylformamido)-4-methyl-2-oxopentanamide] | 1 to 10 µM | > 10 µM |
| CC(C)NC(=O)C(=O)C(C)OC1CCCCC1 (stereo not drawn) [FP 125, 3-(Cyclohexyloxy)-2-oxo-N-(propan-2-yl)butanamide] | 1 to 10 µM | 1 to 10 µM |
| CC(NC(=O)c1ccccc1)C(=O)C(=O)NCC1CCCCC1 (stereo not drawn) [FP 179, N-(Cyclohexylmethyl)-2-oxo-3-(phenylformamido)butanamide] | < 1 µM | < 1 µM |
| O=C(N[C@H]1CCCC[C@H]1O)C(=O)[C@H]1CCC(=O)N1Cc1ccccc1 (single isomer, unassigned) [FP 273] | 1 to 10 µM | 1 to 10 µM |
| CC(C)CNC(=O)C(=O)C(C)N(C=O)CC1CC1 (stereo not drawn) [FP 16, 3-[N-(cyclopropylmethyl)formamido]-N-(2-methylpropyl)-2-oxobutanamide] | < 1 µM | 1 to 10 µM |
| O=C(NC1CC1)C(=O)C1N(Cc2ccccc2)C(=O)CC12CC2 (stereo not drawn) [FP 345, 2-{5-Benzyl-6-oxo-5-azaspiro[2.4]heptan-4-yl}-N-cyclopropyl-2-oxoacetamide] | < 1 µM | < 1 µM |
| O=C(NCCF)C(=O)[C@H]1CCC(=O)N1Cc1ccccc1 [FP 282, 2-[(2R)-1-Benzyl-5-oxopyrrolidin-2-yl]-N-(2-fluoroethyl)-2-oxoacetamide] | < 1 µM | < 1 µM |
| COc1ccccc1N(C=O)C(C)C(=O)C(=O)NCc1ccccn1 (stereo not drawn) [FP 96, 3-[N-(2-Methoxyphenyl)formamido]-2-oxo-N-[(pyridin-2-yl)methyl]butanamide] | < 1 µM | > 10 µM |
| COc1ccccc1N(C=O)C(C)C(=O)C(=O)NCc1ccccc1C (stereo not drawn) [FP 98, 3-[N-(2-Methoxyphenyl)formamido]-N-[(2-methylphenyl)methyl]-2-oxobutanamide] | < 1 µM | 1 to 10 µM |
